{
  "source": "patent US20080139520A1",
  "about": "“Altering cholesterol and fat uptake by novel allosteric inhibitors of pancreatic phospholipase A2” (priority 2006, published 2008)",
  "key": {"PLA2 (3W)(WT)": {"target": "T1, PLA2 (3W)(WT) (Sus scrofa, UniProt P00592)", "T1 construct": "made in house", "T1 sequence (P00592 23-146)": "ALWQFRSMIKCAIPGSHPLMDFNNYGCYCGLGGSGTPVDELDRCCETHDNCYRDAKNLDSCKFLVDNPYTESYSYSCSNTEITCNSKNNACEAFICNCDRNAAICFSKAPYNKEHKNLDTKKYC", "assay": "Bile salt binding by Trp emission, (3W)(WT) PLA2", "design": "species or system pig", "conditions": "read-out: KEB", "protocol": "(§1) Fluorescence emission spectrum or time course of the intensity change from tryptophan or the resonance energy transfer probe TMA-DPH were measured in the ratio mode on SLM-Aminco AB2 in a 1 cm cuvette [31, 32] in 1.6 ml stirred buffer containing 1 or 2 μM PLA2 in 10 mM Tris, 5 mM CaCl2 and 20 mM NaCl at pH 8.0 and 24° C. The slit-widths were 4 nm with excitation at 280.\n(§2) As shown in [45], the binding of decylsulfate to the R site is accompanied by a modest increase in the emission intensity from Trp-3. […] As summarized in Table 2, the value of KEB depends on the position of Trp, although Hill coefficient remains 1. […] Note that KEB for the EB complex of ΔPLA2 is about 7-fold larger than that for PLA2."}, "PLA2 [1]": {"target": "T2, PLA2 (Sus scrofa, UniProt P00592)", "T2 construct": "made in house", "T2 sequence (P00592 23-146)": "as above", "assay": "PLA2 catalyzed hydrolysis of mixed micelles of POPC with bile salts", "type": "biochemical, pig", "conditions": "1 mM POPC, 0.7 mole fraction bile salt", "protocol": "(§3) Aqueous dispersion of phospholipid was sonicated in a bath type sonicator. Virtually transparent suspension was annealed for at least 4 hours at room temperature before use. Reaction progress for the PLA2 catalyzed hydrolysis of sonicated DMPC (1 mM) vesicles was measured by pH-stat titration (Radiometer) with 1 mM 2-aminopropanediol in 4 ml reaction buffer containing 5 mM CaCl2 for DMPC (or 0.5 mM for DMPM), 1 mM NaCl, and 0.1 mM EDTA at pH 8.0 and 24° C. in the nitrogen purged closed atmosphere. Reaction was initiated by adding 0.1 μg enzyme in 1-10 μl solution. The pH stat method was also used for monitoring the rate of hydrolysis of DMPM (0.4 mM) vesicles in the presence of polymyxin [27-29], or of the mixed-micelles of POPC with bile salts in 1:2 ratio [13, 30]."}, "PLA2 A1W/W3F": {"target": "T3, PLA2 A1W/W3F (Sus scrofa, UniProt P00592, A23W/W25F)", "T3 construct": "made in house", "T3 sequence (P00592 23-146 A23W/W25F)": "as the sequence (P00592 23-146) above, with A1W, W3F counted along it", "assay": "Bile salt binding by Trp emission, A1W/W3F PLA2", "design": "species or system pig", "conditions": "read-out: KEB", "protocol": "as §1, §2"}, "PLA2 K10M": {"target": "PLA2 K10M (Sus scrofa, UniProt P00592, K32M)", "sequence (P00592 whole entry K32M)": "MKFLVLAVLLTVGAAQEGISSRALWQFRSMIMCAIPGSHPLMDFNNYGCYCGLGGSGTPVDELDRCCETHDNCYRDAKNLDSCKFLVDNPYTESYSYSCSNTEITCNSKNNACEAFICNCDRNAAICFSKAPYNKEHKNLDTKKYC", "assay": "Bile salt binding by Trp emission, K10M PLA2", "design": "species or system pig", "conditions": "read-out: KEB", "protocol": "as §1, §2"}, "PLA2 L2W/W3F": {"target": "T4, PLA2 L2W/W3F (Sus scrofa, UniProt P00592, L24W/W25F)", "T4 construct": "made in house", "T4 sequence (P00592 23-146 L24W/W25F)": "as the sequence (P00592 23-146) above, with L2W, W3F counted along it", "assay": "Bile salt binding by Trp emission, L2W/W3F PLA2", "design": "species or system pig", "conditions": "read-out: KEB", "protocol": "as §1, §2"}, "Naja venom PLA2": {"test_system": "Naja venom PLA2", "type": "biochemical, Naja melanoleuca", "protocol": "as §3"}, "PLA2 M20W/W3F": {"target": "T5, PLA2 M20W/W3F (Sus scrofa, UniProt P00592, M42W/W25F)", "T5 construct": "made in house", "T5 sequence (P00592 23-146 W25F/M42W)": "as the sequence (P00592 23-146) above, with W3F, M20W counted along it", "assay": "Bile salt binding by Trp emission, M20W/W3F PLA2", "design": "species or system pig", "conditions": "read-out: KEB", "protocol": "as §1, §2"}, "proPLA2": {"target": "proPLA2 (Sus scrofa, UniProt P00592)", "sequence (P00592 16-146 limits assumed)": "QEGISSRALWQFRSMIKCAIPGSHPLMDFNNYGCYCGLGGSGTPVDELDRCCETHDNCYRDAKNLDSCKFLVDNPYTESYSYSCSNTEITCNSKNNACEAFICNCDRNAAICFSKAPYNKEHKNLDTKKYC", "assay": "Bile salt binding by Trp emission, proPLA2", "design": "species or system pig", "conditions": "read-out: KEB", "protocol": "as §1, §2"}, "PLA2 N117W": {"target": "T6, PLA2 N117W (Sus scrofa, UniProt P00592, N139W)", "T6 construct": "made in house", "T6 sequence (P00592 23-146 N139W)": "as the sequence (P00592 23-146) above, with N117W counted along it", "assay": "Bile salt binding by Trp emission, N117W PLA2", "design": "species or system pig", "conditions": "read-out: KEB", "protocol": "as §1, §2"}, "PLA2 R6M": {"target": "PLA2 R6M (Sus scrofa, UniProt P00592, R28M)", "sequence (P00592 23-146 R28M)": "as the sequence (P00592 23-146) above, with R6M counted along it", "assay": "Bile salt binding by Trp emission, R6M PLA2", "design": "species or system pig", "conditions": "read-out: KEB", "protocol": "as §1, §2"}, "PLA2 K63W/W3F": {"target": "PLA2 K63W/W3F (Sus scrofa, UniProt P00592, W25F/)", "sequence (P00592 whole entry W25F/F85W, form open)": "as the sequence (P00592 whole entry K32M) above, with W25F, M32K, F85W counted along it", "assay": "Bile salt binding by Trp emission, K63W/W3F PLA2", "design": "species or system pig", "conditions": "read-out: KEB", "protocol": "as §1, §2"}, "PLA2 K56W/W3F": {"target": "T7, PLA2 K56W/W3F (Sus scrofa, UniProt P00592, K78W/W25F)", "T7 construct": "made in house", "T7 sequence (P00592 23-146 W25F/K78W)": "as the sequence (P00592 23-146) above, with W3F, K56W counted along it", "assay": "Bile salt binding by Trp emission, K56W/W3F PLA2", "design": "species or system pig", "conditions": "read-out: KEB", "protocol": "as §1, §2"}, "PLA2 R6W/W3F": {"target": "T8, PLA2 R6W/W3F (Sus scrofa, UniProt P00592, R28W/W25F)", "T8 construct": "made in house", "T8 sequence (P00592 23-146 W25F/R28W)": "as the sequence (P00592 23-146) above, with W3F, R6W counted along it", "assay": "Bile salt binding by Trp emission, R6W/W3F PLA2", "design": "species or system pig", "conditions": "read-out: KEB", "protocol": "as §1, §2"}, "WT (wild type) pig PLA2": {"target": "T9, WT (wild type) pig PLA2 (Sus scrofa, UniProt P00592)", "T9 construct": "made in house", "T9 sequence (P00592 23-146)": "as the sequence (P00592 23-146) above", "assay": "PLA2 catalyzed hydrolysis of sonicated DMPC vesicles with added bile salt (pH-stat)", "type": "biochemical", "protocol": "as §3, with “and 0.1 mM EDTA at pH 8.0 and 24° C. in the nitrogen purged closed” left out\nDelay before the onset of the stationary phase of the PLA2 catalyzed reaction progress for the hydrolysis of zwitterionic phospholipids has been extensively characterized. […] The apparent rates in FIG. 3 were obtained from the initial slopes of such reaction progress during which <5% of the total substrate is hydrolyzed.\nThe CMC of the bile salts used in this study range between 0.8 to 5 mM."}, "pig pancreatic IB PLA2": {"target": "T10, pig pancreatic IB PLA2 (Sus scrofa, UniProt P00592)", "T10 construct": "made in house", "T10 sequence (P00592 23-146)": "as above", "assay": "Rate-lowering of hydrolysis of DMPC + 0.05 mole fraction cholate vesicles by pig pancreatic PLA2", "type": "biochemical", "conditions": "0.03 mole fraction; DMPC + 0.05 mole fraction cholate", "excerpt": "Independent support for selective binding of the rate lowering compounds to a regulatory site on PLA2 comes from the rate-lowering effect of such compounds on the hydrolysis of DMPC vesicles containing 0.05 mole fraction cholate.\nScores of other compounds in guggul were not active."}, "PLA2 [2]": {"target": "T2, PLA2", "assay": "Isothermal calorimetric titration of PLA2 with bile salt", "type": "binding, pig", "conditions": "ITC", "protocol": "ITC titration of PLA2 with <1 mM (below the CMC) bile salt stock solution was carried out on the Microcal calorimeter (model VP-itc) with cell volume of 1.42 ml with stirring at 300 rpm. Successive injections were made every 5 min. Standard software was used for the peak integration. The heat change with the internal calibration associated with the dilution of the titrant in the […] was subtracted from the heat change obtained by the injection of the bile salt in the presence of 8.5 μM PLA2. The net heat change per injection in the presence of PLA2 was integrated to obtain the total heat change as a function of the total added amphiphile concentration."}},
  "data": [
    {"compound": "C[C@H](CCC(=O)NCCS(=O)(=O)O)[C@H]1CC[C@H]2[C@@H]3[C@H](O)C[C@@H]4C[C@H](O)CC[C@]4(C)[C@H]3CC[C@]12C", "note": "[TCDOC, taurochenodeoxycholate]", "values": [
      {"measurement": "Kd", "setting": "PLA2 (3W)(WT)", "result": 6, "unit": "µM"},
      {"measurement": "initial rate of hydrolysis of POPC in mixed micelles", "setting": "PLA2 [1]", "result": 15, "unit": "s⁻¹"},
      {"measurement": "Kd", "setting": "PLA2 A1W/W3F", "result": 210, "unit": "µM"},
      {"measurement": "Kd", "setting": "PLA2 K10M", "result": 8, "unit": "µM"},
      {"measurement": "Kd", "setting": "PLA2 L2W/W3F", "result": 18, "unit": "µM"},
      {"measurement": "rate lowering effect with Naja venom enzyme", "setting": "Naja venom PLA2", "result": "not observed"},
      {"measurement": "Kd", "setting": "PLA2 M20W/W3F", "result": 75, "unit": "µM"},
      {"measurement": "Kd", "setting": "proPLA2", "result": 27, "unit": "µM"},
      {"measurement": "Kd", "setting": "PLA2 N117W", "result": 7, "unit": "µM"},
      {"measurement": "Kd", "setting": "PLA2 R6M", "result": 150, "unit": "µM"},
      {"measurement": "Kd", "setting": "PLA2 K63W/W3F", "result": 3, "unit": "µM"},
      {"measurement": "Kd", "setting": "PLA2 K56W/W3F", "result": 21, "unit": "µM"},
      {"measurement": "Kd", "setting": "PLA2 R6W/W3F", "result": 50, "unit": "µM"},
      {"measurement": "concentration at which the rate increase and decrease is complete", "setting": "WT (wild type) pig PLA2; 1 mM DMPC vesicles", "result": "< 0.12", "unit": "mM"},
      {"measurement": "peak rate of hydrolysis of DMPC vesicles", "setting": "WT (wild type) pig PLA2; 1 mM DMPC, 24° C., cholate above 0.04 mM", "result": 80, "unit": "s⁻¹"},
      {"measurement": "bile salt concentration at the maximum rate", "setting": "WT (wild type) pig PLA2; 16° C., 1 mM DMPC", "result": 0.013, "unit": "mM"},
      {"measurement": "bile salt concentration at the maximum rate", "setting": "WT (wild type) pig PLA2; 29° C., 1 mM DMPC", "result": 0.13, "unit": "mM"},
      {"measurement": "effect of bile salt on the rate of hydrolysis (monophasic/biphasic)", "setting": "WT (wild type) pig PLA2; DMPC vesicles, pancreatic PLA2", "result": "a rate increase and then a rate decrease at higher concentration"},
      {"measurement": "Relative Rate-lowering (%) Activity, pPLA2", "setting": "pig pancreatic IB PLA2", "result": 26, "unit": "%"},
      {"measurement": "S", "setting": "PLA2 [2]; 8.5 μM PLA2", "result": 3.5, "unit": "cal/mole/deg"},
      {"measurement": "Hill coefficient", "setting": "PLA2 [2]; single hyperbola fit", "result": 1},
      {"measurement": "Kd", "setting": "PLA2 [2]; KEB, 8.5 μM PLA2", "result": 9, "unit": "µM"}
    ]}
  ]
}
